Test results reported in article PMC8480776, “Selenium Derivatives as Promising Therapy for Chagas Disease: In Vitro and In Vivo Studies” (ACS Infectious Diseases, 2021).
Where two headings read alike, the source gives them in different places.

Assays:
[1] = tested on: T. cruzi epimastigotes, Arequipa strain; assay: Screening against extracellular epimastigotes, Arequipa strain; assay type: cell-based, Trypanosoma cruzi
[2] = tested on: T. cruzi epimastigotes, SN3 strain; assay: Screening against extracellular epimastigotes, SN3 strain; assay type: cell-based, Trypanosoma cruzi
[3] = tested on: T. cruzi epimastigotes, Tulahuen strain; assay: Screening against extracellular epimastigotes, Tulahuen strain; assay type: cell-based, Trypanosoma cruzi
Vero cells = assay: Cytotoxicity test on Vero cells; assay type: cell-based; conditions: Chlorocebus sabaeus, 48 h + 24 h resazurin, read-out: Toxicity IC50 Vero cell
[4] = tested on: T. cruzi amastigotes, Arequipa strain; assay: Screening against intracellular amastigotes, Arequipa strain; assay type: cell-based, Trypanosoma cruzi
[5] = tested on: T. cruzi amastigotes, SN3 strain; assay: Screening against intracellular amastigotes, SN3 strain; assay type: cell-based, Trypanosoma cruzi
[6] = tested on: T. cruzi amastigotes, Tulahuen strain; assay: Screening against intracellular amastigotes, Tulahuen strain; assay type: cell-based, Trypanosoma cruzi
[7] = tested on: T. cruzi trypomastigotes, Arequipa strain; assay: Screening against bloodstream trypomastigotes, Arequipa strain; assay type: cell-based, Trypanosoma cruzi
[8] = tested on: T. cruzi trypomastigotes, SN3 strain; assay: Screening against bloodstream trypomastigotes, SN3 strain; assay type: cell-based, Trypanosoma cruzi
[9] = tested on: T. cruzi trypomastigotes, Tulahuen strain; assay: Screening against bloodstream trypomastigotes, Tulahuen strain; assay type: cell-based, Trypanosoma cruzi
[10] = tested on: Vero cells infected with T. cruzi Arequipa strain; assay: Infection rate in Vero cells (infected cells), Arequipa strain; assay type: cell-based; conditions: Trypanosoma cruzi, 72 h of treatment
T. cruzi Arequipa strain = assay: In vivo trypanocidal activity on BALB/c mice (acute and chronic Chagas disease); design: species or system Trypanosoma cruzi
Description: (§1) Female BALB/c mice aged 10–12 weeks and with a size of 20–24 g were divided into five groups (n = 3 per group): 0, negative control group (uninfected and untreated mice); I, positive control group (infected and untreated mice); II, BZN group (infected mice treated with BZN); III, 26 group (infected mice treated with 26); and IV, 28 group (infected mice treated with 28).
Mice were infected by intraperitoneal injection of 5 × 10^5 BTs of T. cruzi Arequipa strain per mouse in 200 μL PBS.[42] Subsequently, the treatment was intraperitoneally administered (∼200 μL) once daily for 5 consecutive days.
(§2) The tested selenocompounds and BZN were prepared at 2 mg·mL^–1 in an aqueous suspension vehicle containing 5% (v/v) DMSO and 0.5% (w/v) hydroxypropyl methylcellulose, as previously reported.[52] Compounds (20 mg·kg^–1 per day) were administered for 5 consecutive days (total dosages of 100 mg·kg^–1), and vehicle only was administered in the negative and positive control groups. Treatments began when the infection was confirmed (9 dpi) for acute-phase-treated mice, and when it was established that the animals moved into the chronic phase (100 dpi, for chronic-phase-treated mice; Scheme 1).
[…]. Parasitemia was expressed as parasites·mL^–1.
Immunosuppression was performed by intraperitoneal injection of three doses of 200 mg·kg^–1 of ISOPAC CP at 3–4 day intervals (Scheme 1), as previously reported.[53] Mice were closely monitored for side effects or for secondary infections due to immunosuppression. Within 7 days after the last CP injection, parasitemia reactivation was determined by counting BTs according the procedure described for parasitemia in the acute phase.[42]
On 145 dpi, the mice were euthanized using CO2, followed by exsanguination via cardiac puncture, and blood was collected. […]. In addition, spleens were weighed to assess splenomegaly.[42]
DNA extraction of the post-mortem organs/tissues was performed using Wizard Genomic DNA Purification Kit,[41] and the extracted DNA was subjected to amplification by PCR based on the spliced leader (SL) intergenic region sequence of T. cruzi (for detailed description, see literature reported previously).[55] Finally, the PCR products were resolved by electrophoresis on a 2% agarose gel (containing GelRed nucleic gel stain) for 90 min at 90 V.
Circulating antibodies in serum against both antigens were quantitatively evaluated in triplicate by the ELISA test in 96-well plates using diluted serum samples (1:80 in PBS), as previously described.[41]

[11] = assay type: in vivo, BALB/c mice; conditions: variation vs control
Description: as §1, §2
Serum samples obtained from blood in several days post-infection (Scheme 1) were sent to the Biochemical Service (University of Granada) to measure a series of biochemical parameters with the commercial Cromakit using a clinical chemistry analyzer (BS-200, Shenzhen Mindray Biomedical Electronics Co., LTD), as previously described.[41]

[12] = tested on: epimastigotes of T. cruzi Arequipa strain; assay: Flow cytometry analysis of nucleic acid levels (acridine orange); assay type: cell-based, Trypanosoma cruzi; conditions: IC25 concentrations, 72 h
Trypanosoma cruzi Fe-SOD = assay: SOD enzymatic inhibition, Fe-SOD; assay type: biochemical
[13] = molecular target: T1, human erythrocytes CuZn-SOD (Homo sapiens, UniProt P00441); assay: SOD enzymatic inhibition, CuZn-SOD; assay type: biochemical
T1 construct: commercial copper/zinc superoxide dismutase (Cu/Zn-SOD) from human erythrocytes (Sigma-Aldrich); purchased Sigma-Aldrich; host or cells: human erythrocytes (natural source)
T1 sequence (P00441 whole entry): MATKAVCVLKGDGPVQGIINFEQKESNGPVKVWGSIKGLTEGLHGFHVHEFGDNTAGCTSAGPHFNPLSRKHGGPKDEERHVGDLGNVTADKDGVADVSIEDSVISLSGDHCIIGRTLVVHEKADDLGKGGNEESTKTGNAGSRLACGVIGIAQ

[14] = IC50 Vero cells/IC50 epimastigotes
[15] = IC50 Vero cells/IC50 amastigotes
[16] = IC50 Vero cells/IC50 trypomastigotes
[17] = 20 mg·kg–1 per day i.p. 5 days from 9 dpi
[18] = 20 mg·kg–1 per day i.p. 5 days from 100 dpi
[19] = 20 mg·kg–1 per day i.p. for 5 days from 9 dpi
[20] = treatment in acute phase, 15th dpi (2 days after treatment)
[21] = treatment in acute phase, necropsy day
[22] = treatment in chronic phase, 106th dpi (2 days after treatment)
[23] = treatment in chronic phase, necropsy day

SMILES: N#C[Se]c1ccc(NC(=O)c2ccc(C(F)(F)F)cc2)cc1 [Compound 26]
- Selectivity index (SI), epimastigotes, Arequipa strain [1, 14]: 84
- IC50 ([1]; Trypanosoma cruzi, 48 h + 24 h resazurin, read-out: Activity IC50, epimastigote form, Arequipa strain): 1.6 ± 0.3 µM
- Selectivity index (SI), epimastigotes, SN3 strain [2, 14]: 64
- IC50 ([2]; Trypanosoma cruzi, 48 h + 24 h resazurin, read-out: Activity IC50, epimastigote form, SN3 strain): 2.1 ± 0.3 µM
- Selectivity index (SI), epimastigotes, Tulahuen strain [3, 14]: 52
- IC50 ([3]; Trypanosoma cruzi, TULAHUEN, 48 h + 24 h resazurin, read-out: Activity IC50, epimastigote form, Tulahuen strain): 2.6 ± 0.4 µM
- CC50 (Vero cells): 134 ± 11.3 µM
- selectivity index (SI), Arequipa strain, am. forms [4, 15]: 25
- IC50 ([4]; Trypanosoma cruzi, amastigotes in Vero cells, 72 h, read-out: activity IC50, Arequipa strain, am. forms): 5.4 ± 0.7 µM
- selectivity index (SI), SN3 strain, am. forms [5, 15]: 34
- IC50 ([5]; Trypanosoma cruzi, amastigotes in Vero cells, 72 h, read-out: activity IC50, SN3 strain, am. forms): 3.9 ± 0.5 µM
- selectivity index (SI), Tulahuen strain, am. forms [6, 15]: 27
- IC50 ([6]; Trypanosoma cruzi, TULAHUEN, amastigotes in Vero cells, 72 h, read-out: activity IC50, Tulahuen strain, am. forms): 4.9 ± 0.3 µM
- selectivity index (SI), Arequipa strain, trypom. forms [7, 16]: 56
- IC50 ([7]; Trypanosoma cruzi, bloodstream trypomastigotes, 24 h + 4 h resazurin, read-out: activity IC50, Arequipa strain, trypom. forms): 2.4 ± 0.3 µM
- selectivity index (SI), SN3 strain, trypom. forms [8, 16]: 52
- IC50 ([8]; Trypanosoma cruzi, bloodstream trypomastigotes, 24 h + 4 h resazurin, read-out: activity IC50, SN3 strain, trypom. forms): 2.5 ± 0.3 µM
- selectivity index (SI), Tulahuen strain, trypom. forms [9, 16]: 46
- IC50 ([9]; Trypanosoma cruzi, TULAHUEN, bloodstream trypomastigotes, 24 h + 4 h resazurin, read-out: activity IC50, Tulahuen strain, trypom. forms): 2.9 ± 0.2 µM
- IC50 [10]: 22.4 µM
- anti-T. cruzi IgG levels (ELISA), acute phase treatment (T. cruzi Arequipa strain; [17]): lower IgG values than the treated with BZN at the beginning of the treatment
- splenomegaly reduction in comparison with untreated mice, acute phase treatment (T. cruzi Arequipa strain; [17]): 49%
- parasitaemia reactivation after immunosuppression, acute phase treatment (T. cruzi Arequipa strain; 20 mg·kg–1 per day i.p. 5 days from 9 dpi, compared to untreated group): approximately 65%
- parasite-free organs/tissues by PCR, acute phase treatment (T. cruzi Arequipa strain; 20 mg·kg–1 per day i.p. 5 days from 9 dpi, necropsy 145 dpi): 42.9%
- anti-T. cruzi IgG levels (ELISA), chronic phase treatment (T. cruzi Arequipa strain; [18]): similar
- splenomegaly reduction in comparison with untreated mice, chronic phase treatment (T. cruzi Arequipa strain; [18]): 38%
- parasitaemia reactivation after immunosuppression, chronic phase treatment (T. cruzi Arequipa strain; 20 mg·kg–1 per day i.p. 5 days from 100 dpi, compared to untreated group): ~60%
- parasite-free organs/tissues by PCR, chronic phase treatment (T. cruzi Arequipa strain; 20 mg·kg–1 per day i.p. 5 days from 100 dpi, necropsy 145 dpi): 42.9%
- day at which parasitaemia was resolved (T. cruzi Arequipa strain; [19]): 48 dpi
- parasitaemia profile during the acute phase (T. cruzi Arequipa strain; [19]): better activity profile compared to that of BZN
- ALP (liver marker) [11, 20]: + (+/-, 10-20% increase/decrease over the range)
- ALT/GPT (liver marker) [11, 20]: ++ (++/--, 20-30% increase/decrease over the range)
- AST/GOT (liver marker) [11, 20]: ++ (++/--, 20-30% increase/decrease over the range)
- CK-MB (heart marker) [11, 20]: ++++ (++++/----, ˃ 40% increase/decrease over the range)
- LDH (heart marker) [11, 20]: + (+/-, 10-20% increase/decrease over the range)
- Total bilirubin (liver marker) [11, 20]: ++ (++/--, 20-30% increase/decrease over the range)
- Urea (kidney marker) [11, 20]: -- (++/--, 20-30% increase/decrease over the range)
- Uric acid (kidney marker) [11, 20]: ---- (++++/----, ˃ 40% increase/decrease over the range)
- ALP (liver marker) [11, 21]: ++ (++/--, 20-30% increase/decrease over the range)
- ALT/GPT (liver marker) [11, 21]: ++ (++/--, 20-30% increase/decrease over the range)
- AST/GOT (liver marker) [11, 21]: = (=, variation ≤ 10%)
- CK-MB (heart marker) [11, 21]: = (=, variation ≤ 10%)
- LDH (heart marker) [11, 21]: = (=, variation ≤ 10%)
- Total bilirubin (liver marker) [11, 21]: + (+/-, 10-20% increase/decrease over the range)
- Urea (kidney marker) [11, 21]: = (=, variation ≤ 10%)
- Uric acid (kidney marker) [11, 21]: = (=, variation ≤ 10%)
- ALP (liver marker) [11, 22]: = (=, variation ≤ 10%)
- ALT/GPT (liver marker) [11, 22]: ++ (++/--, 20-30% increase/decrease over the range)
- AST/GOT (liver marker) [11, 22]: +++ (+++/---, 30-40% increase/decrease over the range)
- CK-MB (heart marker) [11, 22]: + (+/-, 10-20% increase/decrease over the range)
- LDH (heart marker) [11, 22]: = (=, variation ≤ 10%)
- Total bilirubin (liver marker) [11, 22]: +++ (+++/---, 30-40% increase/decrease over the range)
- Urea (kidney marker) [11, 22]: --- (+++/---, 30-40% increase/decrease over the range)
- Uric acid (kidney marker) [11, 22]: - (+/-, 10-20% increase/decrease over the range)
- ALP (liver marker) [11, 23]: = (=, variation ≤ 10%)
- ALT/GPT (liver marker) [11, 23]: = (=, variation ≤ 10%)
- AST/GOT (liver marker) [11, 23]: = (=, variation ≤ 10%)
- CK-MB (heart marker) [11, 23]: + (+/-, 10-20% increase/decrease over the range)
- LDH (heart marker) [11, 23]: = (=, variation ≤ 10%)
- Total bilirubin (liver marker) [11, 23]: ++ (++/--, 20-30% increase/decrease over the range)
- Urea (kidney marker) [11, 23]: = (=, variation ≤ 10%)
- Uric acid (kidney marker) [11, 23]: - (+/-, 10-20% increase/decrease over the range)
- inhibition of nucleic acid levels [12]: 47%
- IC50 (Trypanosoma cruzi Fe-SOD): 51.9 µM
- IC50 [13]: > 100 µM
